The text below walks through data of patent US20140023650A1, “Methods of Treating and/or Preventing Cell Proliferation Disorders with IL-17 Antagonists” (INSTITUT MEDICAL DE LA SANTE ET DE LA RECHERCHE MEDICALE, priority 2010, published 2014).

The test system of data set [1] is patients with Rheumatoid Arthritis. The following applies: cited from earlier work.
For data set [2], the system named is MCF10A. The experiment in a line: Transwell migration and Matrigel invasion assays, MCF10A. Type of data set: cell-based, human. The following applies: for increase in cell invasion / increase in cell migration: TNFα 100 ng/mL or TGFβ 8 ng/mL, 9 days. The method, then:
(§1) FIG. 16: IL-17 induces Epithelial to Mesenchymal Transition (EMT) via Twist-1 upregulation in mammary epithelial cells which increases cell migration, invasion and stemness. Human immortalized mammary epithelial cells (MCF10A) cells were untreated (NT) or treated with TNFα (100 ng/mL), TGF (8 ng/mL) or IL-17 (10 ng/mL) for 9 days. (A) MCF10A cells were first transduced using shRNA lentiviral constructs targeting the LUCIFERASE gene (shCt), AICDA gene (shAICDA) or TWIST1 gene (shTWIST1) mRNA and then treated with cytokines as indicated above. IL-17 (but no TNFα or TGFβ) induces EMT in ShCt and ShAICDA MCF10A characterized by loss of epithelial marker E-Cadherin (which, in color, fluoresces in green) and gain of mesenchymal marker Vimentin (which, in color, fluoresces in red) as assessed by immunofluorescence. […] (B) IL-17 (but no TNFα or TGFβ) induces EMT characterized by loss of epithelial markers E-Cadherin, α-Catenin and Occludin and gain of mesenchymal markers N-Cadherin and Vimentin as assessed by immunobloting. Actin was used as a loading control. (C) IL-17 enhances migratory (black bars) and invasive (white bars) abilities of MCF10A cells as assessed in Boyden chamber assays. (D-1 to D-3) IL-17 increases the number of CD24^low CD44^high stem cells in MCF10A cells. Flow cytometry assay showing CD24 and CD44 expression in untreated (NT) and IL-17-treated MCF10A cells (IL-17). Decreased CD24 and increased CD44 expression is indicative of normal stem cells. Red box indicates the stem cell population.
For transwell migration assay, 5·10^4 cells were plated in the top chamber with the non-coated membrane (24-well insert; pore size, […]; BD Biosciences). For invasion assay, 5·10^4 cells were plated in the top chamber with Matrigel-coated membrane (24-well insert; pore size, […]; BD Biosciences). In both assays, cells were plated in 1% serum medium, and 10% serum medium was used as a chemo-attractant in the lower chamber. The cells were incubated for 24 h. Cells that reached the lower chamber were stained with Giemsa and counted. Total number of migrating/invading cell was calculated by analyzing 5 fields per well in two independent experiments, that is 10 fields per condition.

The test system of a further data set is MCF7 breast cancer cells. Kind of data set: Boyden chamber migration and invasion assays, MCF7. Type of data set: cell-based, human. Particulars: MCF7, IL-17 10 ng/mL, stimulated (FIG. 17B). An excerpt: FIG. 17: IL-17 induces Epithelial to Mesenchymal Transition (EMT) in well differentiated and non-metastatic MCF7 breast cancer cells which increases MCF7 cancer cell migration, invasion and sternness. […] (A) IL-17 (but not TGFβ) induces EMT characterized by loss of epithelial marker E-Cadherin (which, in color, fluoresces in green) and gain of mesenchymal marker Vimentin (which, in color, fluoresces in red) as assessed by immunofluorescence. (B) IL-17 enhances migratory (black bars) and invasive (white bars) abilities of MCF7 cancer cells as assessed in Boyden chamber assays. (C-1 to C-3) IL-17 increases the number of CD24^low CD44^high stem cells in MCF7 cancer cells. Flow cytometry assay showing CD24 and CD44 expression in untreated (NT) and IL-17-treated MCF7 cells (IL-17). Decreased CD24 and increased CD44 expression is indicative of cancer stem cells. Red box indicates the cancer stem cell population.
For transwell migration assay, 5·10^4 cells were plated in the top chamber with the non-coated membrane (24-well insert; pore size, […]; BD Biosciences). […] Cells that reached the lower chamber were stained with Giemsa and counted. Total number of migrating/invading cell was calculated by analyzing 5 fields per well in two independent experiments, that is 10 fields per condition.

The test system of data set [3] is MCF10A. The experiment in a line: CD24/CD44 flow cytometry (stem cells), MCF10A. The data set is classed as cell-based, human. The following applies: MCF10A upon IL-17 exposure; ~16% untreated (FIG. 16D). The procedure:
as §1, with “Actin was used as a loading control.” left out, “(D-1 to D-3) IL-17 increases the number of CD24^low CD44^high stem cells in MCF10A cells. Flow cytometry assay showing CD24 and CD44 expression in untreated (NT) and IL-17-treated MCF10A cells (IL-17). Decreased CD24 and increased CD44 expression is indicative of normal stem cells. Red box indicates the stem cell population.” left out
Expression of human IL-17R (FAB177P, R&D system), CD24 (BD Pharmingen) and CD44 (BD Pharmingen) was determined by flow cytometry on a FACSCalibur flow cytometer (BD Biosciences) and analyzed using FlowJo software (Tree star). […]
For orientation: A flow cytometer gives signals particle by particle.

Another data set deals with MCF7. Kind of data set: CD24/CD44 flow cytometry (cancer stem cells), MCF7. The data set is classed as cell-based, human. The following applies: MCF7 upon IL-17 exposure; ~0% untreated (FIG. 17C). The procedure: FIG. 17: IL-17 induces Epithelial to Mesenchymal Transition (EMT) in well differentiated and non-metastatic MCF7 breast cancer cells which increases MCF7 cancer cell migration, invasion and sternness. MCF7 cells were untreated (NT) or treated TGFβ (8 ng/mL) or IL-17 (10 ng/mL) for 9 days. (A) IL-17 (but not TGFβ) induces EMT characterized by loss of epithelial marker E-Cadherin (which, in color, fluoresces in green) and gain of mesenchymal marker Vimentin (which, in color, fluoresces in red) as assessed by immunofluorescence. (B) IL-17 enhances migratory (black bars) and invasive (white bars) abilities of MCF7 cancer cells as assessed in Boyden chamber assays. (C-1 to C-3) IL-17 increases the number of CD24^low CD44^high stem cells in MCF7 cancer cells. Flow cytometry assay showing CD24 and CD44 expression in untreated (NT) and IL-17-treated MCF7 cells (IL-17). Decreased CD24 and increased CD44 expression is indicative of cancer stem cells. Red box indicates the cancer stem cell population.
Expression of human IL-17R (FAB177P, R&D system), CD24 (BD Pharmingen) and CD44 (BD Pharmingen) was determined by flow cytometry on a FACSCalibur flow cytometer (BD Biosciences) and analyzed using FlowJo software (Tree star). The antibodies were used at 1/25, 1/100 and 1/100 respectively.

In a further data set the test system is B cell clones. The experiment in a line: Cell viability of B cell clones (propidium iodide uptake, flow cytometry). Particulars: doxorubicin 300 nM, 96 h, no antibodies. Type of data set: cell-based, human. The method, then:
FIG. 4: Autocrine production of IL-17 and BAFF protects B cell clones from doxorubicin-mediated cell death. (A) B cell clones secrete IL-17 and BAFF. B104 human B lymphoma cells and B cell clones DN1#1, DN1#2, DN1#3, DN1#4, DN2#5 and DN2#6 (see FIG. 3, above) were seeded at 10^5 cell/mL in medium alone and maintained in culture for 5 days. At day 5, IL-17 and BAFF concentration in cell culture supernatants was determined by ELISA. (B-1 to B-6) IL-17 and BAFF neutralizing antibodies induce B cell clone apoptosis and increase doxorubicin-induced apoptosis. […] Viability was assessed by propridium iodide uptake and flow cytometry analysis. […] B104 human B lymphoma cell line, either non-treated (NT) or pre-treated for 24 h in the presence of CpG2006 (CpG, 2.5 μg/mL) or IL-17 (1 ng/mL) and BAFF (100 ng/mL) as indicated, as well as clones DN1#1, DN1#2, DN1#3, DN1#4, DN2#5 and DN2#6 were treated or not with doxorubicin (300 nM) for 6 h and then p53, p21 and actin protein expression was assessed by immunoblotting. […]
FIG. 8: Neutralizing antibodies to IL-17, BAFF, IL-6, and IL-10 induce apoptosis and sensitize B cell clones to chemotherapy (doxorubicin). […] Viability was assessed by propridium iodide uptake and flow cytometry analysis.
Cell viability was assessed by propidium iodide (Sigma) uptake. Data were acquired on a FACSCalibur (BD Biosciences) and were analyzed with Flowio software (TreeStar).

A further data set relates to SLE patients. The following applies: cited from earlier work.

On to “AIN 457: human anti-IL-17 monoclonal antibody (Novartis)”, for which the “patients in whom treatment was effective” value in data set [1] (Rheumatoid Arthritis, 27% of patients who received placebo) is on record as 46%. In addition, the “safety / tolerability in RA patients” value in data set [1] (patients with RA) is on record as “safe”.
Take “IL-17: recombinant IL-17 (PeproTech, ref 200-17)”: the “increase in ability to migrate in transwell migration assay” value in the data set on MCF10A [2] (IL-17 10 ng/mL, 9 days (FIG. 16C, black bars)) was roughly 16 fold. The “increase in invasive ability in Matrigel invasion assay” value with MCF10A [2] (IL-17 10 ng/mL, 9 days (FIG. 16C, white bars)) was roughly 10 fold. Besides, in the data set on MCF7 breast cancer cells, the “increase in invasive ability” value is recorded as roughly 10 fold and the “increase in migratory ability” value is roughly 8 fold. The “percentage of CD24low/CD44high stem cells” value in the data set on MCF10A [3] turned out to be 71%. Also, the “percentage of CD24lowCD44high cancer stem cells” value with MCF7 came out at 67%.
For the compound TNFα, in the data set on MCF10A [2], the “increase in cell invasion” value is recorded as “no” and the “increase in cell migration” value was “no”.
Regarding `COc1cccc2c1C(=O)c1c(O)c3c(c(O)c1C2=O)C[C@@](O)(C(=O)CO)C[C@@H]3O[C@H]1C[C@H](N)[C@H](O)[C@H](C)O1` [doxorubicin], in the data set with B cell clones, the “doxorubicin-induced apoptosis of B cell clones” value is “remarkably resistant”.
Take “TGFβ: recombinant TGFβ (PeproTech, 100-21)”: in the data set on MCF10A [2], the “increase in cell invasion” value is “weak” and the “increase in cell migration” value was “weak”.
In the case of Belimumab: humanized anti-BAFF antibody, in the data set on SLE patients, the “biological activity in SLE patients” value is “biologically active” and the “tolerability in SLE patients” value is listed as “well tolerated”.
Regarding “LY2439821: humanized monoclonal antibody against IL-17A (Eli Lilly)”, the “efficacy compared to placebo” value in data set [1] (intravenous, certain doses, RA patients) is “statistically significantly more effective”.
